Assay results reported in US12325715B2, “Fluorous metal chelates compositions” (The Regents of the University of California, priority 2018, dated 2025).

How the values were obtained:
[1] = Intramolecular 19F NMR relaxation rates at 9.4 T; format: physicochemical; settings: 5 CF2 groups (precursors and Ga3+ chelate), ± s.e.m.
Source text: Intramolecular ^19F NMR relaxometry measurements of 5a isomers further confirmed the structural analyses. We observed that among Fe3+ chelates, 5a OOO isomer had the highest, and 5a PPP isomer had the lowest, R1 and R2 values (Table 3). Ortho-substitution caused a more drastic intramolecular PRE, by ˜3 orders of magnitude, compared to para-substitution due to the closer proximity of the Fe3+ paramagnetic center to the ortho position ([…]) compared to the para position ([…]).
NMR spectra and relaxation rates were recorded on a Bruker Ascend 400 MHz (9.4 T) spectrometer (Billerica, MA). Additional relaxation rate measurements were performed at 3 T using a GE750 (General Electric, Milwaukee, WI) clinical MRI system equipped with a custom dual-channel ^19F/1H 72 mm diameter volume coil (RAPID Biomedical, Rimpar, Germany). The ^19F NMR spectra were referenced to an internal standard, sodium trifluoroacetate (NaTFA, 0.1 wt %, −76.00 ppm, Sigma-Aldrich, T6508), which was placed in a separate sealed capillary tube within the NMR tube. Relaxation measurements were performed using a standard inversion recovery pulse sequence and a Carr-Purcell-Meiboom-Gill sequence with echo-time (TE) values in 12 linear increments. The T1 and T2 values were obtained by nonlinear fitting using MNova 6.0.2 software (Mestrelab, Escondido, CA). Fit errors were less than 5% of T1 and T2 values. For quantitative peak measurements, spectra were acquired using calibrated 90° pulses, 32,000 complex points, spectral window 0 to −200 ppm, relaxation delay 2.5 s, and 128 averages. Spectra were processed in MNova with manual phase correction and Whittaker smoother baseline correction (filter=1 ppm). Relaxation parameters were measured for six middle CF2 peaks of PFOB, spanning ˜10 ppm, which account for 12 out of 17 F atoms in the molecule. To assay nanoemulsion uptake (^19F/cell) using NMR, an aliquot of 1×10^6 cells were pelleted and resuspended in 0.1 mL of lysis solution (0.5% Triton X, 100 mM NaCl, 20 mM Tris, 1 mM EDTA) and reference compound NaTFA (0.745 mg/mL)/D2O was added to 5 mm NMR tube. The integrated ratio of PFOB fluorine peaks to NaTFA singlet fluorine peak at −76.00 ppm determined the amount of ^19F in the cell pellet and the ^19F/cell was calculated.
(§1) NMR measurements. NMR spectra and relaxation rates were recorded on a Bruker Ascend 400 MHz (9.4 T) spectrometer (Billerica, MA). […] For quantitative peak measurements, spectra were acquired using calibrated 90° pulses, 32,000 complex points, spectral window 0 to −200 ppm, relaxation delay 2.5 s, and 128 averages. […] Relaxation parameters were measured for six middle CF2 peaks of PFOB, spanning ˜10 ppm, which account for 12 out of 17 F atoms in the molecule. […]

[2] = Kinetics of emulsion metalation with metal salts (UV-Vis); format: physicochemical
Procedure: Strong absorbance of aromatic diketone and its complexes permits facile kinetic investigation of metalation rates. In a typical measurement, emulsion from example 4 was diluted to 70 uM diketone (excess ligand, modeling radiolabeling conditions) into a solution of chosen pH and treated with 10 uM metal cations of relevance to medical imaging, including Fe^3+ (MRI), Cu^2+ (PET), Ga^3+ (PET, SPECT), Sc^3+ (PET), and In^3+ (SPECT). In all cases, UV-Vis spectral changes indicative of metal uptake into the fluorous phase were detected, proportional in magnitude to the amount of metal. For some metals, kinetic analysis was performed. The reaction time course fit well to a pseudo-first-order process with rate constant kobs (Table 1).

[3] = 19F R1 relaxation leakage test of metalated emulsions with EDTA at 37 °C; format: physicochemical; settings: small fluorinated diketones
Source text: Decrease in relaxation rate ^19F R1 would indicate sequestration of Fe^3+ to the aqueous phase, where it is too far from fluorine-19 nuclei to have an effect on ^19F R1.
It may be necessary for sufficient stability to use fluorinated diketones with heavily fluorinated substituents that are well-miscible with other fluorinated agents known in the art to be useful for ^19F MRI.

[4] = cited from earlier work
[5] = 3 T; cited from earlier work
[6] = Intermolecular 19F NMR relaxometry and susceptibility shift in PFOB; format: physicochemical; settings: neat PFOB
Source text: We screened the impact of various cations bound to SALTAME 5a and dissolved in PFOB via NMR relaxometry and susceptibility shift measurements (Table 4). Of the period-4 cations tested (V3+, Cr3+, Mn2+, Fe3+, Co2+, Cu2+, Ni2+, Zn2+, Ga3+), only Mn4+, Fe3+, Co3+, and Ga3+ formed stable and separable (by column chromatography) chelates with SALTAME. […] The diamagnetic Ga3+ chelate had little relaxation effects or shift for PFOB. […] Mn4+ changed r1, r2 and susceptibility shift, but to a much lesser extent than Fe3+.
The longitudinal and transverse ^19F relaxation rates of the Fe3+ chelate, 5a POP, was further evaluated as a function of iron concentration at the clinically-relevant field strength of 3 T yielding relaxivities r1 and r2 of 0.56 s−1 mM−1 and 1.67 s−1 mM−1, respectively, compared to 0.50 s−1 mM−1 and 1.07 s−1 mM−1 values of r1 and r2 at 9.4 T, respectively. […]
as §1, with “NMR” for “NMR measurements. NMR”

RAW cells = assay: NAO flow cytometry assay for cytotoxicity (apoptosis); format: cell-based, murine; settings: 16 h labeling, compared to unlabeled cells
Procedure: We investigated the potential effect of P-PFOB labeling on RAW cell viability and phenotype (FIG. 4A-FIG. 4D). To study cytotoxicity, we used a flow cytometry assay for apoptosis (FIGS. 4A-4C) using 10-N-nonyl acridine orange (NAO).^20 As a positive control to induce oxidative stress, 10% ethanol was added to the cell media. […] Side-scatter is routinely used in flow cytometry to distinguish cell types by granularity. Labeled cells often display increased granularity with internalization of PFC droplets. To assay cell phenotype, we used flow cytometry to monitor potential changes in cell surface CD86 expression as a marker for macrophage activation, where increased levels indicated a pro-inflammatory response to label. Lipopolysaccharide (LPS) treatment was used as a positive control to induce a pro-inflammatory phenotype.
Viability assay. 10-N-nonyl acridine orange (NAO) was obtained from Invitrogen (A1372, Carlsbad, CA). NE labeled and control RAW cells were stained with 100 ng/ml of NAO for 15 minutes followed by washes according to manufacturer's instructions. As a positive control, cells were stressed by incubation with 10% ethanol at 37° C. containing 5% CO2 for 90 minutes before NAO staining. Green fluorescence from NAO dye (emission max at 520 nm) was detected using flow cytometry (LSR Fortessa, BD Biosciences).

[7] = final [M3+] 10 uM, final [ligand] 70 uM, pH 2.1 (8 mM HCl)

SMILES: O=Cc1cc(C(F)(F)C(F)(F)C(F)(F)C(F)(F)C(F)(F)C(F)(F)F)ccc1O [3a, 5-Perfluorohexyl-salicylaldehyde]
- R1 (intramolecular 19F) [1]: 1.33 ± 0.01 s⁻¹
- R2 (intramolecular 19F) [1]: 1.75 ± 0.01 s⁻¹

SMILES: O=Cc1cccc(C(F)(F)C(F)(F)C(F)(F)C(F)(F)C(F)(F)C(F)(F)F)c1O [3b, 3-Perfluorohexyl-salicylaldehyde]
- R1 (intramolecular 19F) [1]: 0.87 ± 0.01 s⁻¹
- R2 (intramolecular 19F) [1]: 1.12 ± 0.01 s⁻¹

SMILES: [Cl][Fe]([Cl])[Cl] [FeCl3]
- kobs ([2]; final [M3+] 5 uM, final [ligand] 70 uM, pH 2.1 (8 mM HCl)): 0.79 min⁻¹
- kobs [2, 7]: 0.70 min⁻¹

SMILES: [Cl][Ga]([Cl])[Cl] [GaCl3]
- kobs [2, 7]: 0.043 min⁻¹

SMILES: O=C(CC(=O)C(F)(F)F)c1ccccc1 [H-bta]
- enhancing relaxation [3]: highly effective
- stability under EDTA competition and cell labeling [3]: not stable enough

SMILES: CC(C)(C)C(=O)CC(=O)C(F)(F)C(F)(F)C(F)(F)F [H-fod]
- enhancing relaxation [3]: highly effective
- stability under EDTA competition and cell labeling [3]: not stable enough

SMILES: O=C(CC(=O)C(F)(F)F)C(F)(F)F [H-hfp]
- enhancing relaxation [3]: highly effective
- stability under EDTA competition and cell labeling [3]: not stable enough

SMILES: C/C(O)=C/C(=O)C(F)(F)C(F)(F)C(F)(F)F [H-hhd]
- enhancing relaxation [3]: highly effective
- stability under EDTA competition and cell labeling [3]: not stable enough

SMILES: C/C(O)=C/C(=O)C(F)(F)C(F)(F)C(F)(F)C(F)(F)C(F)(F)C(F)(F)F [H-tdd]
- enhancing relaxation [3]: highly effective
- stability under EDTA competition and cell labeling [3]: not stable enough

SMILES: O=C(CC(=O)C(F)(F)F)c1cccs1 [H-tta]
- enhancing relaxation [3]: highly effective
- stability under EDTA competition and cell labeling [3]: not stable enough

SMILES: [Cl-].[Cl-].[Cl-].[In+3] [InCl3]
- kobs ([2]; final [M3+] 2 uM, final [ligand] 14 uM, pH ~5 (unbuffered H2O)): >10 min⁻¹
- kobs ([2]; final [M3+] 10 uM, final [ligand] 70 uM, pH 7.4 HEPES): 0.0322 min⁻¹

SMILES: FC1(F)OC(F)(F)C(F)(F)OC(F)(F)C(F)(F)OC(F)(F)C(F)(F)OC(F)(F)C(F)(F)OC1(F)F [PFCE, perfluoro-15-crown-5-ether]
- half-life in vivo (body) [4]: > 100 days
- T1 [5]: ~0.9 ms

SMILES: FC(F)(F)C(F)(F)C(F)(F)C(F)(F)C(F)(F)C(F)(F)C(F)(F)C(F)(F)Br [PFOB, perfluorooctylbromide]
- half-life in vivo (body) [4]: 3 to 8 days
- T1 [5]: ~1200 ms
- R1 ([6]; 3 T): 0.79 s⁻¹
- R1 ([6]; 9.4 T): 1.4 s⁻¹

SMILES: CCO [ethanol]
- cytotoxicity (NAO apoptosis assay) (RAW cells): display cytotoxicity
